Source: patent US11932645B2, “Substituted pyrazolo[1,5-a]pyrimidines and their use in the treatment of medical disorders” (Bial—R&D Investments, S.A., priority 2014, dated 2024)

Molecular target: T1, glucocerebrosidase (Gcase) (Homo sapiens, UniProt P04062)
T1 sequence (P04062 40-536): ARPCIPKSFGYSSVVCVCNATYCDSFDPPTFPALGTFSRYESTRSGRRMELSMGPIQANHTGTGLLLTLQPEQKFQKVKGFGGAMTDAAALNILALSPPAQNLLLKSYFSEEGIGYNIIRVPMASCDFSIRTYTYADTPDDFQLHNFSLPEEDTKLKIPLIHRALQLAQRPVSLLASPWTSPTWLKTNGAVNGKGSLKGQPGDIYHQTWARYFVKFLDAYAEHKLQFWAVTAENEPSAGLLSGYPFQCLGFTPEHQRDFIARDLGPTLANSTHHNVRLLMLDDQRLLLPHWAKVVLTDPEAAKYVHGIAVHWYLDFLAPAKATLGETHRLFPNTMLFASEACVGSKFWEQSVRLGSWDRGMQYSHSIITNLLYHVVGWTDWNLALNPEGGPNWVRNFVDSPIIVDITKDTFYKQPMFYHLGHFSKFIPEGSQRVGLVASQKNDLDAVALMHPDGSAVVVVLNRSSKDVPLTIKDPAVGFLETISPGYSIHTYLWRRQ
Assay: Glucocerebrosidase (Gcase) activation assay, 4-methylumbelliferyl-beta-D-glucopyranoside substrate, with saposin C
Assay type: biochemical
Settings: 10 nM GCase, 100 nM saposin C, pH 4.7
Method: The ability of exemplary compounds to activate glucocerebrosidase (Gcase) was measured.
A 484 μL aliquot of a 1.0 mg/mL solution of phosphatidylserine (PS) (Sigma P7769) in chloroform was evaporated under a stream of nitrogen for 1 hour. The lipid film was dissolved over 4 minutes of vigorous vortexing in 40 mL of 176 mM K2HPO4/50 mM citric acid (pH 4.7) containing 7.5 μL of triton X-100, resulting in a mixed micellar preparation with a composition of 0.32 mM triton and 0.37 mol % PS. 4-Methylumbelliferyl-beta-D-glucopyranoside (ACROS-337025000) was dissolved in the micellar solution to a final concentration of 2 mM for use as the reaction substrate.
Test compounds were diluted to the desired concentrations with dimethylsulfoxide (DMSO) from 10 mM stocks, and 0.41 μL of the DMSO compound mixture was added to 100 μL of micellar solution containing 10 nM GCase and 100 nM saposin C (Enzo ALX-201-262-C050). Pre-incubation was allowed to occur for 30 minutes at room temperature, after which the reaction was initiated by combining 25 μL of substrate solution with 25 μL of compound/GCase/saposin mixture. The reaction proceeded for 15 minutes at room temperature and was stopped by adding 150 μL of 1M glycine, pH 12.5. The endpoint of the reaction was monitored by measuring fluorescence intensity (excitation: 365 nm; emission: 440 nm) on a SpectraMax i3 instrument (Molecular Devices). Test compounds were screened at 1.0 and 0.1 μM final concentration, and subsequent 8-point dose response curves were obtained using 3-fold dilutions from a maximum final concentration of 5 μM.
For experiments in which the test compound was used at a concentration of 1.0 μM, the symbol “+” indicates less than 30% Gcase activation; the symbol “++” indicates Gcase activation in the range of 30% up to 60%; and the symbol “+++” indicates Gcase activation greater than 60%. For experiments in which the test compound was used at a concentration of 0.1 μM, the symbol “*” indicates less than 10% Gcase activation; the symbol “**” indicates Gcase activation in the range of 10% up to 20%; and the symbol “***” indicates greater than 20% Gcase activation.

| SMILES | Percent Gcase Activation 0.1 μM Test Compound | Percent Gcase Activation 1 μM Test Compound |
| --- | --- | --- |
| Cc1cc(C)n2ncc(C(=O)Nc3ccc(Oc4ccccc4)cc3)c2n1 [III-5] | *** (greater than 20% Gcase activation) | ++ (Gcase activation in the range of 30% up to 60%) |
| Cc1cc(C)n2ncc(C(=O)N[C@H](C)c3ccc(Cl)cc3)c2n1 [III-64] | ** (Gcase activation in the range of 10% up to 20%) | +++ (Gcase activation greater than 60%) |
| COCC#Cc1ccc(NC(=O)c2cnn3c(C)cc(C)nc23)cc1 [III-4] | ** (Gcase activation in the range of 10% up to 20%) | +++ (Gcase activation greater than 60%) |
| C#Cc1ccc(NC(=O)c2cnn3c(C)cc(C)nc23)cc1 [IV-1] | ** (Gcase activation in the range of 10% up to 20%) | ++ (Gcase activation in the range of 30% up to 60%) |
| CO[C@H]1CC[C@@H](C(C)(C)NC(=O)c2cnn3c(C)cc(C)nc23)CC1 [III-72] | * (less than 10% Gcase activation) | +++ (Gcase activation greater than 60%) |
| CO[C@H]1CC[C@H](C(C)(C)NC(=O)c2cnn3c(C)cc(C)nc23)CC1 [III-71] | * (less than 10% Gcase activation) | ++ (Gcase activation in the range of 30% up to 60%) |
| Cc1cc(C)n2ncc(C(=O)Nc3ccc(-c4ncco4)cc3)c2n1 [III-11] | ** (Gcase activation in the range of 10% up to 20%) | +++ (Gcase activation greater than 60%) |
| Cc1cc(C)n2ncc(C(=O)Nc3ccc(-c4nccs4)cc3)c2n1 [III-7] | ** (Gcase activation in the range of 10% up to 20%) | +++ (Gcase activation greater than 60%) |
| Cc1cc(C)n2ncc(C(=O)NC(C)C3CCC(F)(F)CC3)c2n1 (stereo not shown) [III-66] | * (less than 10% Gcase activation) | + (less than 30% Gcase activation) |
| Cc1cc(Cl)nc2c(C(=O)NC(C)(C)c3ccc(Cl)cc3)cnn12 [III-69] | *** (greater than 20% Gcase activation) | +++ (Gcase activation greater than 60%) |
| Cc1ccn2ncc(CNc3ccc(-c4cocn4)cc3)c2n1 [III-25] | * (less than 10% Gcase activation) | + (less than 30% Gcase activation) |
| Cc1cc(C)n2ncc(C(=O)Nc3ccc4c(c3)CCNC4)c2n1 [III-46] | * (less than 10% Gcase activation) | + (less than 30% Gcase activation) |
| Cc1cc(C)n2ncc(C(=O)Nc3ccc(N4CCCCC4)cc3)c2n1 [IV-3] | * (less than 10% Gcase activation) | + (less than 30% Gcase activation) |
| Cc1cc(C)n2ncc(C(=O)Nc3ccc(-c4cocn4)cc3)c2n1 [III-10] | ** (Gcase activation in the range of 10% up to 20%) | +++ (Gcase activation greater than 60%) |
| Cc1cc(C)n2ncc(C(=O)Nc3ccc(Cl)c(-c4cnco4)c3)c2n1 [III-53] | ** (Gcase activation in the range of 10% up to 20%) | +++ (Gcase activation greater than 60%) |
| Cc1cc(C)n2ncc(C(=O)N[C@@H](C)c3cccc(Cl)c3)c2n1 [III-63] | ** (Gcase activation in the range of 10% up to 20%) | +++ (Gcase activation greater than 60%) |
| C#Cc1ccc(NC(=O)c2cnn3c(C)cc(C)nc23)c(OC)c1 [III-8] | ** (Gcase activation in the range of 10% up to 20%) | ++ (Gcase activation in the range of 30% up to 60%) |
| Cc1cc(C)n2ncc(C(=O)Nc3ccc(N=[N+]=[N-])cc3)c2n1 [III-38] | * (less than 10% Gcase activation) | ++ (Gcase activation in the range of 30% up to 60%) |
| Cc1cc(C)n2ncc(C(=O)Nc3ccc(-c4ccccc4)cc3)c2n1 [III-3] | *** (greater than 20% Gcase activation) | ++ (Gcase activation in the range of 30% up to 60%) |
| Cc1cc(C)n2ncc(C(=O)Nc3ccc(-c4cscn4)cc3)c2n1 [III-27] | ** (Gcase activation in the range of 10% up to 20%) | +++ (Gcase activation greater than 60%) |
| Cc1cc(C)n2ncc(C(=O)Nc3ccc4c(c3)OCO4)c2n1 [IV-4] | * (less than 10% Gcase activation) | ++ (Gcase activation in the range of 30% up to 60%) |
| Cc1cc(C)n2ncc(C(=O)Nc3ccc(C)c(-c4ncco4)c3)c2n1 [III-52] | ** (Gcase activation in the range of 10% up to 20%) | +++ (Gcase activation greater than 60%) |
| Cc1cc(C)n2ncc(C(=O)Nc3ccc4c(c3)C(C3=NCCN3)CCC4)c2n1 (stereo not shown) [III-73] | * (less than 10% Gcase activation) | + (less than 30% Gcase activation) |
| Cc1ccn2ncc(CNc3ccc(-c4ncco4)cc3)c2n1 [III-26] | * (less than 10% Gcase activation) | + (less than 30% Gcase activation) |

More lines, now with the values ahead:

| Percent Gcase Activation 0.1 μM Test Compound | Percent Gcase Activation 1 μM Test Compound | SMILES |
| --- | --- | --- |
| * (less than 10% Gcase activation) | + (less than 30% Gcase activation) | Cc1cc(C)n2ncc(C(=O)Nc3ccc4cn[nH]c4c3)c2n1 [III-42] |
| * (less than 10% Gcase activation) | + (less than 30% Gcase activation) | Cc1cc(C)n2ncc(C(=O)Nc3ccc(-c4ncc[nH]4)cc3)c2n1 [III-30] |
| * (less than 10% Gcase activation) | + (less than 30% Gcase activation) | Cc1cc(C)n2ncc(C(=O)Nc3ccc(-c4cnoc4)cc3)c2n1 [III-17] |
| *** (greater than 20% Gcase activation) | +++ (Gcase activation greater than 60%) | Cc1cc(C)n2ncc(C(=O)Nc3ccc(-c4cccs4)cc3)c2n1 [III-39] |
| * (less than 10% Gcase activation) | + (less than 30% Gcase activation) | Cc1cc(C)n2ncc(C(=O)Nc3ccc(-c4cnn(C)c4)nc3)c2n1 [III-23] |
| * (less than 10% Gcase activation) | + (less than 30% Gcase activation) | C#Cc1ccc(NC(=O)c2cnn3c(C)cc(C)nc23)cn1 [III-2] |
| *** (greater than 20% Gcase activation) | +++ (Gcase activation greater than 60%) | Cc1cc(C)n2ncc(C(=O)Nc3ccc(-c4ccco4)cc3)c2n1 [III-55] |
| * (less than 10% Gcase activation) | + (less than 30% Gcase activation) | Cc1cc(C)n2ncc(C(=O)Nc3ccc(C(C)O)cc3)c2n1 (stereo not shown) [III-35] |
